# Results taken from patent US20170333522A1, “EXPRESSION AND FUNCTION OF GPR64/ADGRG2 IN ENDOCRINE SYSTEMS AND METHODS TO TARGET IT THERAPEUTICALLY” (priority 2016, published 2017).
# Key:
# GPR64ΔNTF [1] = target: T1, GPR64ΔNTF (Homo sapiens, UniProt Q8IZP9); test: CRE reporter gene assay (pCRE-Luc) in HEK cells transfected with GPR64ΔNTF; assay type: cell-based; settings: increasing concentrations of P-15, 5 hrs
# T1 construct: The human GPR64 variant 1 (full length with 1017 amino acids); expressed in transfected cells; host or cells: AD-293 (HEK) cells, transient transfection with pcDNA3.1-GPR64ΔNTF
# T1 sequence (Q8IZP9 607-1017 limits assumed, stated change not applied): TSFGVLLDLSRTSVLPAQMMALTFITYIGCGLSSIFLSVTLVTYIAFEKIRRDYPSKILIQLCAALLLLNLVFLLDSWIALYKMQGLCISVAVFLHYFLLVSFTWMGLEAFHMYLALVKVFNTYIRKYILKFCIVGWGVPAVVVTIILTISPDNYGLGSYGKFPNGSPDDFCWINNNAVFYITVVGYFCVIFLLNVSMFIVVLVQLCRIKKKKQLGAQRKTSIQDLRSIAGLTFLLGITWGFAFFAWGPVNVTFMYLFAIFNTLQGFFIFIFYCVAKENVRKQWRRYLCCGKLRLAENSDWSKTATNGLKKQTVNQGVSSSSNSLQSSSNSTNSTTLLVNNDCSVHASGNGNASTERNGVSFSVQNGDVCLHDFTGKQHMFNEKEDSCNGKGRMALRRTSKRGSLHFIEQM
# Description: (§1) FIG. 2. (A) HEK cells were transfected with pCRE-Luc in combination with 200 ng of pcDNA3.1, GPR64 or GPR64ΔNTF plasmids and were stimulated with increasing concentrations of 15 amino acid-long human GPR64 peptide (P-15) for 5 hrs. Luciferase activity (CRE induction) was measured and data were normalized to the values of cells transfected with pcDNA3.1. Data are mean±SD from 3-4 independent experiments conducted in triplicates. (B) Forty eight hrs post-transfection with pcDNA3.1, GPR64 or GPR64ΔNTF plasmids, HEK cells were stimulated with DMSO (vehicle) or 100 μM P-15 peptide for 30 min and cAMP accumulation was measured in an ELISA assay at 405 nm. […] (C) Freshly isolated human adenoma parathyroid cells were stimulated with increasing concentrations of Ca^2+ and P-15 or DMSO (vehicle) for 30 min and the concentration of secreted intact PTH was measured by ELISA. […] (D) Freshly isolated human adenoma parathyroid cells were stimulated with increasing concentrations of Ca^2+ and forskolin (FSK, 3 and 5 μM) or DMSO (vehicle) for 30 min and the concentration of secreted intact PTH was measured by ELISA. […]
# (§2) HEK cells were seeded in white opaque 96-well plates (30,000 cell/well) and were transfected with pCRE-Luc (100 ng/well) along with different doses of empty or GPR64-expressing plasmids. […] Luminescence was measured in a FLEXStationIII plate reader (Molecular Devices).
# GPR64 [2] = target: T2, GPR64 (Homo sapiens, UniProt Q8IZP9); test: CRE reporter gene assay (pCRE-Luc) in HEK cells transfected with GPR64; assay type: cell-based; parameters: The human GPR64 variant 1 (full length with 1017 amino acids); expressed in transfected cells; host or cells: AD-293 (HEK) cells, transient transfection with pcDNA3.1-GPR64; settings: increasing concentrations of P-15, 5 hrs
# T2 sequence (Q8IZP9 38-1017): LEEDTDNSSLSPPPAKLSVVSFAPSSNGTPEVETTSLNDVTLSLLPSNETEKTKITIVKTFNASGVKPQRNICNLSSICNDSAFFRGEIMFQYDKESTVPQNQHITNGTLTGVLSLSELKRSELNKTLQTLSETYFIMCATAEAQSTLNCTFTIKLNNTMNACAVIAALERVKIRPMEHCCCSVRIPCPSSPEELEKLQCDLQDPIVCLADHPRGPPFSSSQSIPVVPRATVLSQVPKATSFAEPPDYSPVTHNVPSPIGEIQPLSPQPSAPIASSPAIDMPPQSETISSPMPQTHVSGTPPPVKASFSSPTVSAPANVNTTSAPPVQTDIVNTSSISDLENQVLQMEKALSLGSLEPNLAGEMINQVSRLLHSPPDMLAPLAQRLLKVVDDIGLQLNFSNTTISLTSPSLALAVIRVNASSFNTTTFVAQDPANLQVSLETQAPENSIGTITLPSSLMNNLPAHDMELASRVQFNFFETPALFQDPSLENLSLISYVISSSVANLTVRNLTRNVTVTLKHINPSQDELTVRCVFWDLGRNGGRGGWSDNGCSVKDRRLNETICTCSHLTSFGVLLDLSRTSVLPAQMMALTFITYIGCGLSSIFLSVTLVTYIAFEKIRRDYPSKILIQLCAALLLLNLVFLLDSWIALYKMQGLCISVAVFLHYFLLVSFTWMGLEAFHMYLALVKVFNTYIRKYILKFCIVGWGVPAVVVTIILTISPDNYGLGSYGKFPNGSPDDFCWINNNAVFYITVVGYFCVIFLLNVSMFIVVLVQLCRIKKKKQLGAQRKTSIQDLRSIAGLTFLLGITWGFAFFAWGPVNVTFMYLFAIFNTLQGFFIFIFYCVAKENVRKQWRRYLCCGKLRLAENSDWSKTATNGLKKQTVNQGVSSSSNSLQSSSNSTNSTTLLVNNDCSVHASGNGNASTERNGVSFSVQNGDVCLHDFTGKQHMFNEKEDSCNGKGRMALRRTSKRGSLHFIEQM
# Description: as §1, §2
# GPR64 [3] = target: T2, GPR64; test: cAMP accumulation assay in HEK-CaSR cells transfected with GPR64; assay type: cell-based; parameters: The human GPR64 variant 1 (full length with 1017 amino acids); expressed in transfected cells; host or cells: HEK-CaSR cells (AD-293 clone stably expressing FLAG-tagged human CaSR), transient transfection with pcDNA3.1-GPR64; settings: 100 μM P-15, 30 min, 1.25 or 3 mM Ca^2+
# GPR64 [4] = target: T2, GPR64; test: cAMP accumulation assay (ELISA) in HEK cells transfected with GPR64; assay type: cell-based; parameters: The human GPR64 variant 1 (full length with 1017 amino acids); expressed in transfected cells; host or cells: AD-293 (HEK) cells, transient transfection with pcDNA3.1-GPR64; settings: 100 μM P-15, 30 min, 48 hrs post-transfection
# Description: FIG. 2. (A) HEK cells were transfected with pCRE-Luc in combination with 200 ng of pcDNA3.1, GPR64 or GPR64ΔNTF plasmids and were stimulated with increasing concentrations of 15 amino acid-long human GPR64 peptide (P-15) for 5 hrs. Luciferase activity (CRE induction) was measured and data were normalized to the values of cells transfected with pcDNA3.1. Data are mean±SD from 3-4 independent experiments conducted in triplicates. (B) Forty eight hrs post-transfection with pcDNA3.1, GPR64 or GPR64ΔNTF plasmids, HEK cells were stimulated with DMSO (vehicle) or 100 μM P-15 peptide for 30 min and cAMP accumulation was measured in an ELISA assay at 405 nm. Data were corrected to the protein concentration in samples. Data are mean±SD from 3 independent experiments conducted in triplicates. *: P<0.05, ****: P<0.0001. (C) Freshly isolated human adenoma parathyroid cells were stimulated with increasing concentrations of Ca^2+ and P-15 or DMSO (vehicle) for 30 min and the concentration of secreted intact PTH was measured by ELISA. Data were normalized to the PTH secretion in vehicle-treated cells cultured in 0.5 mM Ca^2+. […] (D) Freshly isolated human adenoma parathyroid cells were stimulated with increasing concentrations of Ca^2+ and forskolin (FSK, 3 and 5 μM) or DMSO (vehicle) for 30 min and the concentration of secreted intact PTH was measured by ELISA. […]
# [5] = tested on: human parathyroid adenoma cells; test: PTH secretion from freshly dispersed human parathyroid adenoma cells (intact PTH ELISA); assay type: cell-based; settings: 30 min
# Description: Dispersed primary human parathyroid cells were rested for 1 hr at 37° C. in keratinocyte-SFM media (Thermo Fisher Scientific#37010-022) supplemented with the manufacturer's provided media supplements, antibiotics and 1.25 mM Ca^2+. Cells were then centrifuged and transferred to KSFM media with various concentrations of Ca^2+, P-15 peptide, forskolin and volumetric equivalent of DMSO for 30 min at 37° C. Supernatants were collected by centrifugation at 10,000 rpm, 5 min at 4° C. and were stored in −80 for determination of intact PTH.
# Human intact PTH (1-84) in cell supernatants was measured in a colorimetric ELISA assay (Immutopics International #60-3000).
# GPR64ΔNTF [6] = target: T1, GPR64ΔNTF; test: cAMP accumulation assay in HEK-CaSR cells transfected with GPR64ΔNTF; assay type: cell-based; settings: concomitant 3 mM Ca^2+ and 100 μM P-15
# [7] = tested on: tumor cells from tertiary hyperparathyroidism; test: PTH secretion from isolated tumor cells of tertiary hyperparathyroidism glands; assay type: cell-based, human
# Description: (§3) FIG. 14A. Tertiary hyperparathyroidism following kidney transplantation. […] Isolated tumor cells from tertiary hyperparathyroidism gland A were stimulated with calcium (CaSR agonist) and P-15 peptide (GPR64 agonist) in vitro and PTH secretion was measured.
# as §3, with “14B.” for “14A.”, “C” for “A”, “measured. Cells express very high levels of GPR64 and are unresponsive to calcium-mediated suppression of PTH secretion.” for “measured.”
# [8] = tested on: P-15-induced CRE induction; test: P-15-induced CRE induction in GPR64-transfected HEK cells after preincubation with kinase inhibitors; assay type: cell-based, human; settings: 1 hr preincubation (H-89 20 μM, U0126 10 μM) before 100 μM P-15 for 5 hrs
# Description: FIG. 7. HEK cells were transfected with pCRE-Luc and GPR64 and were preincubated with DMSO (vehicle), H-89 (PKA inhibitor, 20 μM) or U0126 (MEK inhibitor, 10 μM) for 1 hr before stimulation with either DMSO or 100 μM P-15 peptide for 5 hrs. Luciferase assay data are normalized to vehicle-preincubated, DMSO stimulated cells. Data are mean±SD from 3 independent experiments conducted in triplicates. *: P<0.05, **: P<0.01.
# HEK cells were seeded in white opaque 96-well plates (30,000 cell/well) and were transfected with pCRE-Luc (100 ng/well) along with different doses of empty or GPR64-expressing plasmids. Cell were either left untreated or stimulated with different concentrations of P-15 peptide for 5 hrs at 37° C. Luminescence was measured in a FLEXStationIII plate reader (Molecular Devices).
# HEK-CaSR cells = test: cAMP accumulation assay in HEK-CaSR cells; assay type: cell-based, human; settings: activation of CaSR by 3 mM Ca^2+, forskolin-stimulated cells
molecule,measurement,setting,value
"TSFGVLLDLSRTSVL [P-15, GPR64 agonist]",CRE induction (luciferase activity),GPR64ΔNTF [1],concentration-dependent CRE induction
same,CRE induction (luciferase activity),GPR64 [2]; GPR64-transfected HEK cells,concentration-dependent CRE induction
same,CRE induction (luciferase activity),GPR64 [2]; control cells (pcDNA3.1-transfected HEK),absent
same,cAMP production,GPR64 [3],increased cAMP production irrespective of CaSR activation with 3 mM Ca^2+
same,cAMP production,GPR64 [4],specifically activates GPR64 to produce cAMP
same,PTH secretion,[5]; P-15 with various concentrations of Ca^2+,elevated the PTH secretion
same,intracellular cAMP,GPR64ΔNTF [6],restored the intracellular cAMP to the level of cells activated only with P-15 in normocalcemic conditions
same,PTH secretion,"[7]; tertiary hyperparathyroidism gland A, calcium plus P-15 in vitro",higher PTH secretion
N#CC(=C(/N)Sc1ccccc1N)/C(C#N)=C(\N)Sc1ccccc1N [U0126],effect on P-15-induced CRE induction,[8],did not inhibit CRE induction
"[Ca+2].[Cl-].[Cl-] [Calcium, Calcium chloride, reference compound]",PTH secretion,[5]; increasing concentrations of Ca^2+,suppressed PTH secretion in a dose-dependent manner
same,cAMP level,HEK-CaSR cells,suppressed cAMP levels significantly
same,calcium-mediated suppression of PTH secretion,"[7]; tertiary hyperparathyroidism gland C, cells express very high levels of GPR64",unresponsive
O=S(=O)(NCCNC/C=C/c1ccc(Br)cc1)c1cccc2cnccc12 [H-89],effect on P-15-induced CRE induction,[8],blunted the P-15-induced CRE induction
